Counter-ions that a name gives are not always drawn. Like-named read-outs stand apart in the source and are kept apart here.
Key:
[1] = target: human MCH1 receptor (Homo sapiens, UniProt Q99705); experiment: Functional assay: intracellular calcium mobilization (antagonist potency Kb); format: cell-based; parameters: expressed in transfected cells; host or cells: COS-7 cells, transient, DEAE-dextran, plasmid pEXJ.HR-TL231 (ATCC 203197)
Method: Intracellular calcium mobilization assays for the MCH1 receptor were carried out using plasmid pEXJ.HR-TL231 (ATCC Accession No. 203197). COS-7 cells were transiently transfected with DNA encoding the MCH1 receptor utilizing the DEAE-dextran method as described above. The intracellular free calcium concentration was measured by fluorescent imaging using the calcium sensitive fluorscent dye Fluo-3. COS-7 cells expressing the human MCH1 receptor were seeded onto sterile 96 well plates, washed with Hank's balanced salt solution (HBSS), containing 20 mM HEPES, 2.5 mM probenecid, and 0.1% BSA, and loaded with the same buffer containing 3.8 μM Fluo-3 for 1 hour at 37° C. After washing with HBSS to remove the fluo-3 solution, cells were equilibrated for 10 minutes.

[2] = Table 1, cloned human MCH1 receptor, functional assay, read-out: Kb (nM) hMCH1
[3] = Table 2, antagonist potency at the human MCH1 receptor, read-out: hMCH1 Kb
[4] = Table 3, antagonist potency at the human MCH1 receptor, read-out: hMCH1 Kb
[5] = read-out: hMCH1 Kb, Table 3, antagonist potency at the human MCH1 receptor

human MCH1 receptor, sequence (Q99705 whole entry): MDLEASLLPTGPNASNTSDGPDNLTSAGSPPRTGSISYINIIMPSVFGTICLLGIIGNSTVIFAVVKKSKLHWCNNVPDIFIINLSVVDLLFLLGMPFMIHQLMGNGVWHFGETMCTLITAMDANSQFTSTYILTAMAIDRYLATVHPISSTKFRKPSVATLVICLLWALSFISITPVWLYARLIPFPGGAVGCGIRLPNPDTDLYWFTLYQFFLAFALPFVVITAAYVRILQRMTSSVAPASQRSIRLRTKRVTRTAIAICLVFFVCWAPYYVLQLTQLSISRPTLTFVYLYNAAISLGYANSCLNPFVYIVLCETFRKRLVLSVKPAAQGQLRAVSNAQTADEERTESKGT

Molecule	melting point [°C]	Kb [1, 2] [nM]	also measured
COCC1=C(C(=O)OC)C(c2ccc(F)c(F)c2)N(C(=O)NCCCN2CCC(OC(C)=O)(c3ccccc3)CC2)C(=O)N1 (stereo not drawn) (as salt: hydrochloride) [Example 3, (1)-1,2,3,6-TETRAHYDRO-1-{N-[3-(4-O-ACETYL)-4-PHENYLPIPERIDIN-1-YL]PROPYL}CARBOXAMIDO-5-METHOXYCARBONYL-4-METHOXYMETHYL-6-(3,4-DIFLUOROPHENYL)-2-OXOPYRIMIDINE]	82 to 84	–	–
COC(=O)C1=C(C)NC(=O)N(C(=O)NCCCN2CCC3(CC2)OCc2ccccc23)C1c1ccc(F)c(F)c1 (stereo not drawn) (as salt: hydrochloride) [Example 20, 4-(3,4-DIFLUORPHENYL)-6-METHYL-2-OXO-3-{[3-(4-SPIRO[ISOBENZO-FURAN-1(3H),4′-PIPERIDINE]PROPYL}-1,2,3,4-TETRAHYDROPYRIMIDINE-5-CARBOXYLIC ACID METHYL ESTER]	178 to 182	–	–
COC(=O)C1=C(C)NC(=O)N(C(=O)NCCCN2CCC3(CCc4ccccc43)CC2)C1c1ccc2nonc2c1 (racemic) [Example 21]	–	28	–
COCC1=C(C(=O)OC)C(c2ccc(F)c(F)c2)N(C(=O)NCCCN2CCC(OC(C)=O)(c3ccccc3)CC2)C(=O)N1 (stereo not drawn) [Example 3, (1)-1,2,3,6-TETRAHYDRO-1-{N-[3-(4-O-ACETYL)-4-PHENYLPIPERIDIN-1-YL]PROPYL}CARBOXAMIDO-5-METHOXYCARBONYL-4-METHOXYMETHYL-6-(3,4-DIFLUOROPHENYL)-2-OXOPYRIMIDINE]	–	–	Kb [1]: 201 nM
CCCCN(CCCC)c1ccc(CN2CCC(CNC(=O)N3C(=O)NC(C)=C(C(=O)OC)C3c3ccc4nonc4c3)CC2)cc1 (stereo not drawn) [Example 6]	–	42	Kb [1, 3]: 42 nM; Kb [1, 4]: 42 nM
COC(=O)C1=C(C)NC(=O)N(C(=O)NCCCN2CCC(c3ccccc3)CC2)C1c1ccc2nonc2c1 (stereo not drawn) [Example 8, 6-(BENZOFURAZAN-5-YL)-1,2,3,6-TETRAHYDRO-5-METHOXYCARBONYL-4-METHYL-2-OXO-1-{N-[3-(4-PHENYLPIPERIDIN-1-YL)PROPYL]}CARBOXAMIDO-PYRIMIDINE]	–	88	–
COC(=O)C1=C(C)NC(=O)N(C(=O)NCCCN2CCC(c3ccccc3)CC2)C1c1ccc(F)c(F)c1 (stereo not drawn) [Example 11, 6-(3,4-DIFLOUROPHENYL)-1,2,3,6-TETRAHYDRO-5-METHOXYCARBONYL-4-METHYL-2-OXO-1-{N-[3-(4-PHENYLPIPERIDIN-1-YL) PROPYL]}CARBOXAMIDO-PYRIMIDINE]	–	331	–
COC(=O)C1=C(C)NC(=O)N(C(=O)NCCCN2CCC3(CC2)OCc2ccccc23)C1c1ccc(F)c(F)c1 (stereo not drawn) [Example 20, 4-(3,4-DIFLUORPHENYL)-6-METHYL-2-OXO-3-{[3-(4-SPIRO[ISOBENZO-FURAN-1(3H),4′-PIPERIDINE]PROPYL}-1,2,3,4-TETRAHYDROPYRIMIDINE-5-CARBOXYLIC ACID METHYL ESTER]	–	–	Kb [1]: 5 nM; Kb ([1]; read-out: Kb (nM) hMCH1, Table 1, cloned human MCH1 receptor, functional assay): 5 nM; Kb [1, 5]: 5 nM
O=C(CCCN1CCC(O)(c2ccc(Cl)cc2)CC1)c1ccc(Cl)cc1 [Example 29]	–	–	Kb [1]: 9 nM; Kb ([1]; read-out: hMCH1 Kb, Table 2, antagonist potency at the human MCH1 receptor): 9 nM; Kb [1, 5]: 9 nM
COC(=O)C1=C(C)NC(=O)N(C(=O)NCCCN2CCC3(CCc4ccccc43)CC2)C1c1ccc(F)c(F)c1 (stereo not drawn) [Example 32, (1)-1,2,3,6-TETRAHYDRO-1-{N-[4-(DIHYDROINDENE)-1-YL}PROPYL}-CARBOXAMIDO-5-METHOXYCARBONYL-2-OXO-6-(3,4-DIFLUORO)-4-METHYL-PYRIMIDINE]	150 to 153	–	Kb [1]: 67 nM
(1)-1,2,3,6-TETRAHYDRO-1-{N-[4-(3,4-DIHYDRO-2-OXOSPIRONAPHTHALENE-1(2H))-PIPERIDINE-1-YL]PROPYL}CARBOXAMIDO-5-METHOXY-CARBONYL-2-OXO-6-(3,4-DIFLUOROPHENYL)-4-METHYL-PYRIMIDINE [Example 24]	–	102	–
(1)-1,2,3,6-TETRAHYDRO-1-{N-[4-(3,4-DIHYDRO-2-OXOSPIRONAPHTHALENE-1(2H))-PIPERIDINE-1-YL]PROPYL}CARBOXAMIDO-5-METHOXYCARBONYL-2-OXO-6-(3,4-BENZOFURAZAN)-4-METHYLPYRIMIDINE HYDROCHLORIDE [Example 23]	–	68	–

Continued, in another order:

melting point [°C]	Kb [1, 2] [nM]	Molecule	also measured
243 to 244	–	O=C(CCCN1CCC(NC(=O)c2ccccc2)CC1)c1ccc(Cl)cc1 (as salt: HCl) [Example 28, 1-[3-(4-CHLOROBENZOYL)]PROPYL-4-BENZAMIDOPIPERIDINE]	–
66 to 71	–	COC(=O)C1=C(C)NC(=O)N(C(=O)NCCCN2CCN(c3ccccc3C)CC2)C1c1ccc(F)c(F)c1 (stereo not drawn) (as salt: hydrochloride) [Example 35, 1,2,3,6-TETRAHYDRO-1{N-[4-(2′-METHYL-PHENYL)PIPERAZIN-1-YL]-PROPYL}-CARBOXAMIDO-4-METHYL-6-(3,4-DIFLUOROPHENYL)-2-OXO-PYRIMIDINE]	–
180 to 182	–	COC(=O)C1=C(C)NC(=O)N(C(=O)NCCCN2CCC3(CC2)OCc2ccccc23)C1c1ccc2nonc2c1 (single isomer, unassigned) (as salt: hydrochloride) [Example 18]	–
150 to 153	–	COC(=O)C1=C(C)NC(=O)N(C(=O)NCCCN2CCN(c3ccccc3[N+](=O)[O-])C[C@@H]2C)C1c1ccc(F)c(F)c1 (single isomer, unassigned; (+)) (as salt: HCl) [Example 34]	–
168 to 172	–	COCC1=C(C(=O)OC)C(c2ccc(F)c(F)c2)N(C(=O)NCCCN2CCC(c3cccc4ccccc34)CC2)C(=O)N1 (single isomer, unassigned; (+)) [Example 14, (+)-1,2,3,6-TETRAHYDRO-1-{N-[4-(1-NAPHTHYL)-PIPERIDIN-1-YL]PROP-YL}CARBOXAMIDO-4-METHOXYMETHYL-6-(3,4-DIFLUOROPHENYL)-2-OXO-PYRIMIDINE-5-CARBOXYLIC ACID METHYL ESTER]	–
132 to 135	–	COCC1=C(C(=O)OC)C(c2ccc(F)c(F)c2)N(C(=O)NCCCN2CCC(O)(c3ncccc3C)CC2)C(=O)N1 (single isomer, unassigned; (+)) [Example 16]	–
–	182	COC(=O)C1=C(C)NC(=O)N(C(=O)NCCCN2CCN(c3ccccc3[N+](=O)[O-])C[C@@H]2C)C1c1ccc(F)c(F)c1 (single isomer, unassigned; (+)) [Example 34]	–
–	18	COCC1=C(C(=O)OC)C(c2ccc(F)c(F)c2)N(C(=O)NCCCN2CC=C(c3cccc(NC(C)=O)c3)CC2)C(=O)N1 (stereo not drawn) [Example 2, METHYL 3-[(3-4-[3-(ACETYLAMINO)PHENYL]-1,2,3,6-TETRAHYDRO-1-PYR-IDINYLPROPYL)AMINO]CARBONYL-4-(3,4-DIFLUOROPHENYL)-6-(METHOXY-METHYL)-2-OXO-1,2,3,4-TETRAHYDRO-5-PYRIMIDINECARBOXYLATE]	Kb [1, 3]: 18 nM; Kb [1, 4]: 18 nM
158 to 159	258	O=C(NC1CCN(CCC2CCc3ccccc3C2=O)CC1)c1ccccc1 (stereo not drawn) [Example 5]	–
–	284	CCCCN(CCCC)c1ccc(CNC[C@H]2CC[C@H](NC(=O)c3cccc4ccccc34)CC2)cc1 [Example 13, N1-[4-([4-(DIBUTYLAMINO)BENZYL]AMINOMETHYL)CYCLOHEXYL]-1-NAPHTH-AMIDE]	Kb [1, 3]: 284 nM; Kb [1, 4]: 284 nM
–	260	Fc1ccc(C(c2ccc(F)cc2)N2CCN(C/C=C/c3ccccc3)CC2)cc1 [Example 26, 1-[BIS(4-FLUOROPHENYL)METHYL]-4-(3-PHENYL-2-PROPENYL)PIPERAZINE]	Kb [1, 3]: 260 nM
–	279	Cc1cc(O)cc(O)c1/C=N/c1ccc(-c2cn3ccccc3n2)cc1 [Example 27]	Kb [1, 3]: 279 nM
–	479	CN1CN(c2ccccc2)C2(CCN(CCCC(=O)c3ccc(F)cc3)CC2)C1=O [Example 30, N-METHYL-8-[4-(4-FLUOROPHENYL)-4-OXOBUTYL]-1-PHENYL-1,3,8-TRI-AZASPIRO-[4.5]DECAN-4-ONE]	Kb [1, 3]: 479 nM
–	7	O=[N+]([O-])c1ccccc1S(=O)(=O)n1nnc2ccccc21 [Example 31, 1H-1,2,3-BENZOTRIAZOL-1-YL (2-NITROPHENYL) SULFONE]	–
–	276	COC(=O)C1=C(C)NC(=O)N(C(=O)NCCCN2CCN(c3ccccc3C)CC2)C1c1ccc(F)c(F)c1 (stereo not drawn) [Example 35, 1,2,3,6-TETRAHYDRO-1{N-[4-(2′-METHYL-PHENYL)PIPERAZIN-1-YL]-PROPYL}-CARBOXAMIDO-4-METHYL-6-(3,4-DIFLUOROPHENYL)-2-OXO-PYRIMIDINE]	–
